Earlier results, collected in paper PMC11728000, “Antitumor Activity and Multi-Target Mechanism of Phenolic Schiff Bases Bearing Methanesulfonamide Fragments: Cell Cycle Analysis and a Molecular Modeling Study” (International Journal of Molecular Sciences, 2024).

What was measured:
[1] = test system: Leukemia subpanel tumor cell lines; conditions: cited from earlier work; for GI50: read-out: GI50, subpanel average, ref https://dtp.cancer.gov/dtpstandard/dwindex/index.jsp; for TGI, subpanel average: ref https://dtp.cancer.gov/dtpstandard/dwindex/index.jsp
[2] = test system: UO-31; design: method as in https://dtp.cancer.gov/dtpstandard/dwindex/index.jsp; conditions: ref https://dtp.cancer.gov/dtpstandard/dwindex/index.jsp; cited from earlier work
[3] = test system: NCI-H226; design: method as in https://dtp.cancer.gov/dtpstandard/dwindex/index.jsp; conditions: ref https://dtp.cancer.gov/dtpstandard/dwindex/index.jsp; cited from earlier work
[4] = test system: 786-0; design: method as in https://dtp.cancer.gov/dtpstandard/dwindex/index.jsp; conditions: ref https://dtp.cancer.gov/dtpstandard/dwindex/index.jsp; cited from earlier work
[5] = test system: SF-539; design: method as in https://dtp.cancer.gov/dtpstandard/dwindex/index.jsp; conditions: ref https://dtp.cancer.gov/dtpstandard/dwindex/index.jsp; cited from earlier work
[6] = test system: SNB-75; design: method as in https://dtp.cancer.gov/dtpstandard/dwindex/index.jsp; conditions: ref https://dtp.cancer.gov/dtpstandard/dwindex/index.jsp; cited from earlier work
[7] = test system: TK-10; design: method as in https://dtp.cancer.gov/dtpstandard/dwindex/index.jsp; conditions: ref https://dtp.cancer.gov/dtpstandard/dwindex/index.jsp; cited from earlier work
[8] = test system: SR; design: method as in https://dtp.cancer.gov/dtpstandard/dwindex/index.jsp; conditions: ref https://dtp.cancer.gov/dtpstandard/dwindex/index.jsp; cited from earlier work
[9] = test system: LOX IMVI; design: method as in https://dtp.cancer.gov/dtpstandard/dwindex/index.jsp; conditions: ref https://dtp.cancer.gov/dtpstandard/dwindex/index.jsp; cited from earlier work
[10] = test system: RXF 393; design: method as in https://dtp.cancer.gov/dtpstandard/dwindex/index.jsp; conditions: ref https://dtp.cancer.gov/dtpstandard/dwindex/index.jsp; cited from earlier work
[11] = test system: HS 578T; design: method as in https://dtp.cancer.gov/dtpstandard/dwindex/index.jsp; conditions: ref https://dtp.cancer.gov/dtpstandard/dwindex/index.jsp; cited from earlier work
[12] = test system: MOLT-4; design: method as in https://dtp.cancer.gov/dtpstandard/dwindex/index.jsp; conditions: ref https://dtp.cancer.gov/dtpstandard/dwindex/index.jsp; cited from earlier work
[13] = test system: SK-OV-3; design: method as in https://dtp.cancer.gov/dtpstandard/dwindex/index.jsp; conditions: ref https://dtp.cancer.gov/dtpstandard/dwindex/index.jsp; cited from earlier work
[14] = test system: K-562; design: method as in https://dtp.cancer.gov/dtpstandard/dwindex/index.jsp; conditions: ref https://dtp.cancer.gov/dtpstandard/dwindex/index.jsp; cited from earlier work
[15] = test system: U251; design: method as in https://dtp.cancer.gov/dtpstandard/dwindex/index.jsp; conditions: ref https://dtp.cancer.gov/dtpstandard/dwindex/index.jsp; cited from earlier work
[16] = test system: A549/ATCC; design: method as in https://dtp.cancer.gov/dtpstandard/dwindex/index.jsp; conditions: ref https://dtp.cancer.gov/dtpstandard/dwindex/index.jsp; cited from earlier work
[17] = test system: Renal Cancer subpanel tumor cell lines; conditions: cited from earlier work; for GI50: read-out: GI50, subpanel average, ref https://dtp.cancer.gov/dtpstandard/dwindex/index.jsp; for TGI, subpanel average: ref https://dtp.cancer.gov/dtpstandard/dwindex/index.jsp
[18] = test system: NSC Lung Cancer subpanel tumor cell lines; conditions: cited from earlier work; for GI50: read-out: GI50, subpanel average, ref https://dtp.cancer.gov/dtpstandard/dwindex/index.jsp; for TGI, subpanel average: ref https://dtp.cancer.gov/dtpstandard/dwindex/index.jsp
[19] = test system: T-47D; design: method as in https://dtp.cancer.gov/dtpstandard/dwindex/index.jsp; conditions: ref https://dtp.cancer.gov/dtpstandard/dwindex/index.jsp; cited from earlier work
[20] = test system: MDA-MB-435; design: method as in https://dtp.cancer.gov/dtpstandard/dwindex/index.jsp; conditions: ref https://dtp.cancer.gov/dtpstandard/dwindex/index.jsp; cited from earlier work
[21] = test system: SF-295; design: method as in https://dtp.cancer.gov/dtpstandard/dwindex/index.jsp; conditions: ref https://dtp.cancer.gov/dtpstandard/dwindex/index.jsp; cited from earlier work
[22] = test system: NCI-H23; design: method as in https://dtp.cancer.gov/dtpstandard/dwindex/index.jsp; conditions: ref https://dtp.cancer.gov/dtpstandard/dwindex/index.jsp; cited from earlier work
[23] = test system: IGROV1; design: method as in https://dtp.cancer.gov/dtpstandard/dwindex/index.jsp; conditions: ref https://dtp.cancer.gov/dtpstandard/dwindex/index.jsp; cited from earlier work
[24] = test system: 59 human cancer cell lines; conditions: full panel mean-graph midpoint, ref https://dtp.cancer.gov/dtpstandard/dwindex/index.jsp, cited from earlier work; for GI50: read-out: GI50 MG-MID
[25] = test system: CCRF-CEM; design: method as in https://dtp.cancer.gov/dtpstandard/dwindex/index.jsp; conditions: ref https://dtp.cancer.gov/dtpstandard/dwindex/index.jsp; cited from earlier work
[26] = test system: MALME-3M; design: method as in https://dtp.cancer.gov/dtpstandard/dwindex/index.jsp; conditions: ref https://dtp.cancer.gov/dtpstandard/dwindex/index.jsp; cited from earlier work
[27] = test system: HT29; design: method as in https://dtp.cancer.gov/dtpstandard/dwindex/index.jsp; conditions: ref https://dtp.cancer.gov/dtpstandard/dwindex/index.jsp; cited from earlier work
[28] = test system: EKVX; design: method as in https://dtp.cancer.gov/dtpstandard/dwindex/index.jsp; conditions: ref https://dtp.cancer.gov/dtpstandard/dwindex/index.jsp; cited from earlier work
[29] = test system: Ovarian Cancer subpanel tumor cell lines; conditions: cited from earlier work; for GI50: read-out: GI50, subpanel average, ref https://dtp.cancer.gov/dtpstandard/dwindex/index.jsp; for TGI, subpanel average: ref https://dtp.cancer.gov/dtpstandard/dwindex/index.jsp
[30] = test system: MCF-7; design: method as in https://dtp.cancer.gov/dtpstandard/dwindex/index.jsp; conditions: ref https://dtp.cancer.gov/dtpstandard/dwindex/index.jsp; cited from earlier work
[31] = test system: NCI-H522; design: method as in https://dtp.cancer.gov/dtpstandard/dwindex/index.jsp; conditions: ref https://dtp.cancer.gov/dtpstandard/dwindex/index.jsp; cited from earlier work
[32] = test system: NCI-H322M; design: method as in https://dtp.cancer.gov/dtpstandard/dwindex/index.jsp; conditions: ref https://dtp.cancer.gov/dtpstandard/dwindex/index.jsp; cited from earlier work
[33] = test system: MDA-MB-468; design: method as in https://dtp.cancer.gov/dtpstandard/dwindex/index.jsp; conditions: ref https://dtp.cancer.gov/dtpstandard/dwindex/index.jsp; cited from earlier work
[34] = test system: SF-268; design: method as in https://dtp.cancer.gov/dtpstandard/dwindex/index.jsp; conditions: ref https://dtp.cancer.gov/dtpstandard/dwindex/index.jsp; cited from earlier work
[35] = test system: HCC-2998; design: method as in https://dtp.cancer.gov/dtpstandard/dwindex/index.jsp; conditions: ref https://dtp.cancer.gov/dtpstandard/dwindex/index.jsp; cited from earlier work
[36] = test system: MDA-MB-231/ATCC; design: method as in https://dtp.cancer.gov/dtpstandard/dwindex/index.jsp; conditions: ref https://dtp.cancer.gov/dtpstandard/dwindex/index.jsp; cited from earlier work
[37] = test system: CAKI-1; design: method as in https://dtp.cancer.gov/dtpstandard/dwindex/index.jsp; conditions: ref https://dtp.cancer.gov/dtpstandard/dwindex/index.jsp; cited from earlier work
[38] = test system: SNB-19; design: method as in https://dtp.cancer.gov/dtpstandard/dwindex/index.jsp; conditions: ref https://dtp.cancer.gov/dtpstandard/dwindex/index.jsp; cited from earlier work
[39] = read-out: LC50, subpanel average, ref https://dtp.cancer.gov/dtpstandard/dwindex/index.jsp

For `C#Cc1cccc(Nc2ncnc3cc(OCCOC)c(OCCOC)cc23)c1` [Erlotinib, erlotinib], the GI50 [1] is listed as 27.9 µM, the CC50 [1, 39] is listed as greater than 100 µM and the “TGI, subpanel average” value [1] is listed as 96.57 µM. The GI50 [2] was 1 µM, the GI50 [3] was 39.8 µM and the GI50 [4] was 10 µM. For the same compound, the GI50 [5] was 19.9 µM, the GI50 [6] was 12.6 µM and the GI50 [7] was 0.251 µM. The GI50 [8] was 10 µM, the GI50 [9] was 6.31 µM and the GI50 [10] was 3.98 µM. The GI50 [11] was 6.31 µM, the GI50 [12] was 25.1 µM and the GI50 [13] was 0.5 µM. For the same compound, the GI50 [14] was 31.6 µM, the GI50 [15] was 25.1 µM and the GI50 [16] was 10 µM. For the same compound, the GI50 [17] was 2.46 µM, the CC50 [17, 39] was 89.2 µM and the “TGI, subpanel average” value [17] was 42.59 µM. The GI50 [18] was 13.1 µM, the CC50 [18, 39] was 97.7 µM and the “TGI, subpanel average” value [18] was 73.76 µM. The GI50 [19] was 3.98 µM, the GI50 [20] was 19.9 µM and the GI50 [21] was 15.8 µM. For the same compound, the GI50 [22] was 31.6 µM, the GI50 [23] was 0.316 µM and the “TGI MG-MID” value [24] was 66.3 µM. The GI50 [24] was 7.68 µM, the CC50 ([24]; read-out: LC50 MG-MID) was 95.6 µM and the GI50 [25] was 50.1 µM. The GI50 [26] was 1.58 µM, the GI50 [27] was 63.1 µM and the GI50 [28] was 0.199 µM. For the same compound, the GI50 [29] was 5.52 µM, the CC50 [29, 39] was 97.1 µM and the “TGI, subpanel average” value [29] was 74.41 µM. For the same compound, the GI50 [30] was 100 µM, the GI50 [31] was 1 µM and the GI50 [32] was 0.1 µM. For the same compound, the GI50 [33] was 0.126 µM, the GI50 [34] was 15.8 µM and the GI50 [35] was 79.4 µM. For the same compound, the GI50 [36] was 6.31 µM, the GI50 [37] was 0.199 µM and the GI50 [38] was 12.6 µM.
For `COc1cc2ncnc(Nc3ccc(F)c(Cl)c3)c2cc1OCCCN1CCOCC1` [Gefitinib, gefitinib], the GI50 [1] is given as 2.56 µM, the “TGI, subpanel average” value [1] is given as 12.07 µM and the GI50 [2] is given as 1.58 µM. The GI50 [3] was 3.98 µM, the GI50 [4] was 3.16 µM and the GI50 [5] was 10 µM. For the same compound, the GI50 [7] was 0.794 µM, the GI50 [8] was 3.16 µM and the GI50 [9] was 3.16 µM. For the same compound, the GI50 [10] was 3.16 µM, the GI50 [11] was 7.94 µM and the GI50 [12] was 2 µM. For the same compound, the GI50 [13] was 1 µM, the GI50 [14] was 2.51 µM and the GI50 [15] was 3.16 µM. The GI50 [16] was 2.51 µM, the GI50 [17] was 1.41 µM and the “TGI, subpanel average” value [17] was 12.50 µM. The GI50 [18] was 2.05 µM, the “TGI, subpanel average” value [18] was 13.86 µM and the GI50 [19] was 7.94 µM. For the same compound, the GI50 [20] was 3.16 µM, the GI50 [21] was 10 µM and the GI50 [22] was 2.51 µM. For the same compound, the GI50 [23] was 3.16 µM, the “TGI MG-MID” value [24] was 14.3 µM and the GI50 [24] was 2.1 µM. The GI50 [25] was 0.398 µM, the GI50 [26] was 3.98 µM and the GI50 [27] was 3.98 µM. For the same compound, the GI50 [29] was 3.05 µM, the “TGI, subpanel average” value [29] was 33.29 µM and the GI50 [31] was 1 µM. For the same compound, the GI50 [32] was 0.063 µM, the GI50 [33] was 0.0126 µM and the GI50 [34] was 2.51 µM. The GI50 [35] was 2.51 µM, the GI50 [36] was 3.98 µM and the GI50 [38] was 3.16 µM.
